Measured values as given in patent publication US5057614A, “Substituted pyrroles” (Hoffmann-La Roche Inc., priority 1988, dated 1991).

Each compound was assayed against protein kinase C (assay: inhibition of protein kinase C in vitro (protein kinase-induced incorporation of 32P from [γ-32P]ATP into histone)). Settings: concentration reducing by 50% the protein kinase-induced incorporation of 32P from [γ-32P]ATP into histone.
Assay type: biochemical
Text: The IC50 figures in the following Table, represent that concentration of test compound which reduces by 50% the protein kinase-induced incorporation of ^32 P from [γ-^32 P]ATP into histone.
Work on `Cc1cccc(C2=C(c3cn(C)c4ccccc34)C(=O)NC2=O)c1` [3-(1-methyl-3-indolyl)-4-(3-methylphenyl)-1H-pyrrole-2,5-dione] yielded an IC50 of 1000 nM. Compound `Cn1cc(C2=C(c3cn(CCCNC(N)=N[N+](=O)[O-])c4ccccc34)C(=O)NC2=O)c2ccccc21` [3-(1-methyl-3-indolyl)-4-[1-[3-(2-nitroguanidino)propyl]-3-indolyl]-1H-pyrrole-2,5-dione] has an IC50 of 25 nM. In the case of `Cn1cc(C2=C(c3cn(C)c4ccc(N)cc34)C(=O)NC2=O)c2ccccc21` [3-(5-amino-1-methyl-3-indolyl)-4-(1-methyl-3-indolyl)-1H-pyrrole-2,5-dione], the IC50 is reported as 600 nM. `Cn1cc(C2=C(c3cn(CCC(N)=O)c4ccccc34)C(=O)NC2=O)c2ccccc21` [3-[1-(2-carbamoylethyl)-3-indolyl]-4-(1-methyl-3-indolyl)-1H-pyrrole-2,5-dione] gave an IC50 of 500 nM. Work on `Cn1cc(C2=C(c3cn(CCCN=C=S)c4ccccc34)C(=O)NC2=O)c2ccccc21` [3-[1-(3-isothiocyanatopropyl)-3-indolyl]-4-(1-methyl-3-indolyl)-1H-pyrrole-2,5-dione] yielded an IC50 of 8 nM. `Cn1cc(C2=C(c3cn(CCCSC(=N)N)c4ccccc34)C(=O)NC2=O)c2ccccc21` [3-[1-[3-(amidinothio)propyl]-3-indolyl]-4-(1-methyl-3-indolyl)-1H-pyrrole-2,5-dione] showed an IC50 of 10 nM.
